From patent US20250205189A1, “DIETARY BUTYRATE FOR TREATING OR PREVENTING AN ALLERGIC DISORDER” (SOCIETE DES PRODUITS NESTLE S.A., priority 2018, published 2025)

Key:
GATA-3 = settings: cited from earlier work
[1] = tested on: mast cell protease-1 (MCPT-1); test: Serum ELISA of mast cell protease-1 after oral OVA challenge; format: in vivo, mice; settings: 600 μg butyrate per mL infant formula, FIG. 6
female BALB/c mice = test: Cumulative clinical score after oral OVA challenge in mice with pre-existing milk (BLG) allergy; format: in vivo; settings: 600 μg butyrate per mL infant formula ad libitum; 12 oral OVA challenges; compared to Allergic group 1; FIG. 3
From the text: An allergy to milk was induced in female BALB/c mice aged eight weeks by sensitization via epicutaneous application of the milk protein β-lactoglobulin (BLG) (“Allergic group”). At this stage all three “Allergic groups” ([…], […] and Allergic group 3) were subjected to the same sensitization via epicutaneous application of the milk protein β-lactoglobulin (BLG) treatment. The non-allergic negative control group received phosphate buffered saline (PBS) only (“Control group”). Three patches were applied in total, each separated by a week without patch in between. Six days following the final skin patch, mice were orally challenged with BLG following a conventional procedure known to those skilled in the art. Serum was processed for ELISA and BLG-specific Immunoglobulin E (IgE) and BLG-specific Immunoglobulin G1 (IgG1) were determined (FIGS. 1 and 2 respectively).
Following the induction of milk allergy, “Control group” and “Allergic group 1” received infant formula for nutritional management of cow's milk allergy (the extensively hydrolyzed infant formula available commercially under the Trademark Althéra® was used in this example) reconstituted in the drinking water for a three-week period. […]

[2] = tested on: OVA-specific IgE, OVA-specific IgG1; test: Serum ELISA of OVA-specific IgE and IgG1 after oral OVA challenge; format: in vivo, mice; settings: 600 μg butyrate per mL infant formula, compared across the three Allergic groups

CCCC(=O)[O-].[Na+] [sodium butyrate]
GATA-3 or FoxP3 expression (GATA-3; 0.1 mM, CD4+ T cells under Th2 polarizing conditions (Furusawa 2013)): insufficient to influence GATA-3 or FoxP3 expression
Gata3 expression (GATA-3; 1 mM in vitro, Th2 polarized CD4+ T cells (Kespohl 2017)): sufficient to ameliorate Gata3 expression
Mast cell protease-1 (MCPT-1) [1]: reduction in mast cell protease-1
Allergic symptoms (cumulative clinical score) (female BALB/c mice): reduction of allergic symptoms
OVA-specific IgE level ([2]; FIG. 4): similar
OVA-specific IgG1 level ([2]; FIG. 5): similar
